Key:
Format in all cases: cell-based
CDK4/6 [1] = assay: Characterization of CDK4/6 degraders/disruptors in various breast cancer and melanoma cells (summary, Examples 12 and 13)
Description: Specific exemplary abemaciclib-, ribociclib-, and palbociclib-based CDK4/6 degraders/disruptors were characterized in various different breast cancer and melanoma cells (Examples 12 and 13, FIGS. 10-23). […] This efficacy in suppressing CDK4/6 expression and CDK4/6 activity correlated with efficacy in inhibiting cancer cell proliferation.
(§1) Protein concentrations were determined by BCA from cell lysates and equal amounts of protein are loaded to a Bis-Tris 4-12% gel. Gels were run at 80 V for 4 h using 1× running buffer (25 mM Tris, pH 8.3, […] glycine, 0.1% SDS). Proteins were transferred to a nitrocellulose membrane for 2 h at 100 V using transfer buffer (25 mM Tris, pH 8.3, […] glycine, 20% methanol). Ponceau S staining (0.1% Ponceau S, 1% acetic acid) was used to confirm transfer of proteins to the membrane followed by blocking of the membrane for 30 min at room temperature using blocking buffer (5% dry nonfat milk, 0.1% Tween, 0.02% sodium azide in TBS). The blocked membrane is incubated with primary antibodies (1:1000 dilution) in blocking buffer at 4° C. overnight. When primary phosphor-antibodies were used, then the membrane is incubated with 5% BSA instead of milk. The membrane was washed three times, 10 min each, with wash buffer (0.1% Tween in TBS) followed by incubation with secondary HRP conjugated antibody (1:5000 dilution) in 2.5% dry nonfat milk, 0.1% Tween in TBS for 1 h at room temperature. The membrane was washed three times, 10 min each, with wash buffer (0.1% Tween in TBS). Membranes are incubated with ECL for 1 min and proteins are detected after exposure to a blue autoradiographic film.

T47D breast cancer cells = assay: Crystal violet staining (clonogenic assay) of T47D breast cancer cells (Example 13, FIGS. 22, 23); settings: 11 days
Description: Cells were cultured for 7-11 days in the presence of different compounds. Media with compound was replenished every two days. At the end of the experiment, media was aspirated and viable cells were stained with 0.5% crystal violet dye.

CDK4/6 [2] = assay: Western blot of CDK4, CDK6 and phospho-Rb in A375 melanoma cells treated with degraders (Example 12, FIGS. 12, 13, 16, 18); settings: 1 or 3 μM, 24 h
Description: (§2) Breast cancer cell lines (MCF7, T47D, and ZR-75-1) and melanoma cell lines (A375, SK-MEL-2, SK-MEL-30, and WM1382) were cultured in the presence of DMEM or RPMI supplemented with 10% FBS in the presence of penicillin and streptomycin.
as §1
A375 melanoma cells (FIG. 13) were treated with 1 or 3 μM Ribociclib (RB), YX030-126, YX030-108, YX030-107, YX030-086, YX030-085 or XY028-133 for 24 h, then lysed and immunoblotted with antibodies to CDK4, CDK6, cyclin A, PLK1, phospho-Rb (pRb), and actin.
A375 melanoma cells (FIG. 16, panel A) were treated with 0.3 or 1 μM XY028-140, YX039-65, YX039-48, YX039-123, YX039-56, YX039-124 or YX039-147 for 24 h. A375 melanoma cells were treated with 1 or 3 μM XY028-140, YX039-56, YX039-65 or XY028-133 (FIG. 16, panel B). Cells were lysed and immunoblotted with antibodies to phospho-Rb (pRb), total Rb, PLK1, cyclin A, CDK4, CDK6, and actin.
A375 melanoma cells (FIG. 18) were treated with 1 or 3 μM XY028-133, YX044-18, YX044-22, XY028-140, YX044-19 or YX044-38 for 24 h, then lysed and immunoblotted with antibodies to phospho-Rb (pRb), total Rb, PLK1, cyclin A, CDK4, CDK6, and actin.

CDK4/6 [3] = assay: Western blot of CDK4/6 and phospho-Rb in T47D breast cancer cells treated with degraders (Example 12, FIGS. 10 B, 17, 19); settings: 0.3 or 1 μM, 24 h
Description: as §2, §1
MCF7 breast cancer cells were treated with 1 or 5 μM XY019-095, XY019-098, XY019-0100, XY019-105A, XY019-105B, XY019-106, or XY019-108 for 24 h, then lysed and immunoblotted with antibodies to CDK4, CDK6, and actin (FIG. 10, panel A). […] T47D breast cancer cells were treated with 0.1, 0.3, 1, 3, 10, or 30 μM XY019-106 for 24 h, then lysed and immunoblotted with antibodies to phospho-Rb (pRB), CDK4, and actin (FIG. 10, panel B).
T47D breast cancer cells (FIG. 17) were treated with 0.3 or 1 μM XY028-140, YX039-48, YX039-123, YX039-56, YX039-124, YX039-65, YX039-147 or YX039-74 for 24 h, then lysed and immunoblotted with antibodies to phospho-Rb (pRb), total Rb, PLK1, cyclin A, CDK4, CDK6, and actin.
T47D breast cancer cells (FIG. 19) were treated with 0.3 or 1 μM XY028-133, YX044-18, YX044-22, XY028-140, YX044-19 or YX044-38 for 24 h, then lysed and immunoblotted with antibodies to phospho-Rb (pRb), total Rb, PLK1, cyclin A, CDK4, CDK6, and actin.

CC(=O)c1c(C)c2cnc(Nc3ccc(N4CCN(C(=O)CCCCC(=O)N[C@H](C(=O)N5C[C@H](O)C[C@H]5C(=O)NCc5ccc(-c6scnc6C)cc5)C(C)(C)C)CC4)cn3)nc2n(C2CCCC2)c1=O [XY028-132, (2S,4R)-1-((S)-2-(6-(4-(6-((6-acetyl-8-cyclopentyl-5-methyl-7-oxo-7,8-dihydropyrido[2,3-d]pyrimidin-2-yl)amino)pyridin-3-yl)piperazin-1-yl)-6-oxohexanamido)-3,3-dimethylbutanoyl)-4-hydroxy-N-(4-(4-methylthiazol-5-yl)benzyl)pyrrolidine-2-carboxamide]
suppression of both CDK4/6 expression and CDK4/6 activity (summary) (CDK4/6 [1]): especially effective in suppressing both CDK4/6 expression and CDK4/6 activity

CC(=O)c1c(C)c2cnc(Nc3ccc(N4CCN(C(=O)CCCCCCNc5cccc6c5C(=O)N(C5CCC(=O)NC5=O)C6=O)CC4)cn3)nc2n(C2CCCC2)c1=O (centres unmarked) [XY028-144, 4-((7-(4-(6-((6-acetyl-8-cyclopentyl-5-methyl-7-oxo-7,8-dihydropyrido[2,3-d]pyrimidin-2-yl)amino)pyridin-3-yl)piperazin-1-yl)-7-oxoheptyl)amino)-2-(2,6-dioxopiperidin-3-yl)isoindoline-1,3-dione]
suppression of both CDK4/6 expression and CDK4/6 activity (summary) (CDK4/6 [1]): especially effective in suppressing both CDK4/6 expression and CDK4/6 activity

Cc1nc2c(F)cc(-c3nc(Nc4ccc(CN5CCN(C(=O)CCCCCCC(=O)Nc6cccc7c6C(=O)N(C6CCC(=O)NC6=O)C7=O)CC5)cn4)ncc3F)cc2n1C(C)C (centres unmarked) [YX26-66, N-(2-(2,6-dioxopiperidin-3-yl)-1,3-dioxoisoindolin-4-yl)-8-(4-((6-((5-fluoro-4-(4-fluoro-1-isopropyl-2-methyl-1H-benzo[d]imidazol-6-yl)pyrimidin-2-yl)amino)pyridin-3-yl)methyl)piperazin-1-yl)-8-oxooctanamide]
suppression of both CDK4/6 expression and CDK4/6 activity (summary) (CDK4/6 [1]): especially effective in suppressing both CDK4/6 expression and CDK4/6 activity

CC(=O)c1c(C)c2cnc(Nc3ccc(N4CCN(C(=O)COc5cccc6c5C(=O)N(C5CCC(=O)NC5=O)C6=O)CC4)cn3)nc2n(C2CCCC2)c1=O (centres unmarked) [YX039-48, 4-(2-(4-(6-((6-acetyl-8-cyclopentyl-5-methyl-7-oxo-7,8-dihydropyrido[2,3-d]pyrimidin-2-yl)amino)pyridin-3-yl)piperazin-1-yl)-2-oxoethoxy)-2-(2,6-dioxopiperidin-3-yl)isoindoline-1,3-dione]
suppression of both CDK4/6 expression and CDK4/6 activity (summary) (CDK4/6 [1]): especially effective in suppressing both CDK4/6 expression and CDK4/6 activity

CC(=O)c1c(C)c2cnc(Nc3ccc(N4CCN(C(=O)CCc5cccc6c5C(=O)N(C5CCC(=O)NC5=O)C6)CC4)cn3)nc2n(C2CCCC2)c1=O (centres unmarked) [YX039-56, 3-(7-(3-(4-(6-((6-acetyl-8-cyclopentyl-5-methyl-7-oxo-7,8-dihydropyrido[2,3-d]pyrimidin-2-yl)amino)pyridin-3-yl)piperazin-1-yl)-3-oxopropyl)-1-oxoisoindolin-2-yl)piperidine-2,6-dione]
suppression of both CDK4/6 expression and CDK4/6 activity (summary) (CDK4/6 [1]): especially effective in suppressing both CDK4/6 expression and CDK4/6 activity | inhibition of cancer cell proliferation compared with palbociclib (crystal violet staining) (T47D breast cancer cells; 0.003, 0.01 or 0.03 μM): inhibited cancer cell proliferation more effective that palbociclib at the same concentration | inhibition of cancer cell proliferation compared with palbociclib (crystal violet staining) (T47D breast cancer cells; 0.03, 0.1, 0.3, 1 or 3 μM): inhibited cancer cell proliferation more effective that palbociclib at the same concentration

CC(=O)c1c(C)c2cnc(Nc3ccc(N4CCN(C(=O)CNc5cccc6c5CN(C5CCC(=O)NC5=O)C6=O)CC4)cn3)nc2n(C2CCCC2)c1=O (centres unmarked) [YX039-65, 3-(4-((2-(4-(6-((6-acetyl-8-cyclopentyl-5-methyl-7-oxo-7,8-dihydropyrido[2,3-d]pyrimidin-2-yl)amino)pyridin-3-yl)piperazin-1-yl)-2-oxoethyl)amino)-1-oxoisoindolin-2-yl)piperidine-2,6-dione]
suppression of both CDK4/6 expression and CDK4/6 activity (summary) (CDK4/6 [1]): especially effective in suppressing both CDK4/6 expression and CDK4/6 activity | inhibition of cancer cell proliferation compared with palbociclib (crystal violet staining) (T47D breast cancer cells; 0.003, 0.01 or 0.03 μM): inhibited cancer cell proliferation more effective that palbociclib at the same concentration | inhibition of cancer cell proliferation compared with palbociclib (crystal violet staining) (T47D breast cancer cells; 0.03, 0.1, 0.3, 1 or 3 μM): inhibited cancer cell proliferation more effective that palbociclib at the same concentration

CC(=O)c1c(C)c2cnc(Nc3ccc(N4CCN(C(=O)CCc5cccc6c5CN(C5CCC(=O)NC5=O)C6=O)CC4)cn3)nc2n(C2CCCC2)c1=O (centres unmarked) [YX039-124, 3-(4-(3-(4-(6-((6-acetyl-8-cyclopentyl-5-methyl-7-oxo-7,8-dihydropyrido[2,3-d]pyrimidin-2-yl)amino)pyridin-3-yl)piperazin-1-yl)-3-oxopropyl)-1-oxoisoindolin-2-yl)piperidine-2,6-dione]
suppression of both CDK4/6 expression and CDK4/6 activity (summary) (CDK4/6 [1]): especially effective in suppressing both CDK4/6 expression and CDK4/6 activity

CC(=O)c1c(C)c2cnc(Nc3ccc(N4CCN(C(=O)CCc5cccc6c5C(=O)N(C5CCC(=O)NC5=O)C6=O)CC4)cn3)nc2n(C2CCCC2)c1=O (centres unmarked) [YX039-147, 4-(3-(4-(6-((6-acetyl-8-cyclopentyl-5-methyl-7-oxo-7,8-dihydropyrido[2,3-d]pyrimidin-2-yl)amino)pyridin-3-yl)piperazin-1-yl)-3-oxopropyl)-2-(2,6-dioxopiperidin-3-yl)isoindoline-1,3-dione]
suppression of both CDK4/6 expression and CDK4/6 activity (summary) (CDK4/6 [1]): especially effective in suppressing both CDK4/6 expression and CDK4/6 activity

CC(=O)c1c(C)c2cnc(Nc3ccc(N4CCCN(C(=O)CCCCCC(=O)N[C@H](C(=O)N5C[C@H](O)C[C@H]5C(=O)NCc5ccc(-c6scnc6C)cc5)C(C)(C)C)CC4)cn3)nc2n(C2CCCC2)c1=O [YX044-18, (2S,4R)-1-((S)-2-(7-(4-(6-((6-acetyl-8-cyclopentyl-5-methyl-7-oxo-7,8-dihydropyrido[2,3-d]pyrimidin-2-yl)amino)pyridin-3-yl)-1,4-diazepan-1-yl)-7-oxoheptanamido)-3,3-dimethylbutanoyl)-4-hydroxy-N-(4-(4-methylthiazol-5-yl)benzyl)pyrrolidine-2-carboxamide]
efficacy in inhibiting both CDK4/6 expression and CDK4/6 activity (decreased Rb phosphorylation) (CDK4/6 [2]): efficacy of CDK4/6 degraders, particularly XY028-133 and YX044-18

CC(=O)c1c(C)c2cnc(Nc3ccc(N4CCCN(C(=O)CNc5cccc6c5C(=O)N(C5CCC(=O)NC5=O)C6=O)CC4)cn3)nc2n(C2CCCC2)c1=O (centres unmarked) [YX044-19, 4-((2-(4-(6-((6-acetyl-8-cyclopentyl-5-methyl-7-oxo-7,8-dihydropyrido[2,3-d]pyrimidin-2-yl)amino)pyridin-3-yl)-1,4-diazepan-1-yl)-2-oxoethyl)amino)-2-(2,6-dioxopiperidin-3-yl)isoindoline-1,3-dione]
efficacy in inhibiting both CDK4/6 expression and CDK4/6 activity (decreased Rb phosphorylation) (CDK4/6 [3]): efficacy of CDK4/6 degraders, particularly XY028-140 and YX044-22 and YX044-19

From patent publication US11541051B2, “Compositions and methods for treating CDK4/6-mediated cancer” (Icahn School of Medicine at Mount Sinai, priority 2016, dated 2023)
